The target in test [1] is HIS-AXL 473-End (Homo sapiens (Human), UniProt P30530). Description: AXL kinase homogeneous time resolved fluorescence (HTRF) binding assay. As to conditions: 1 nM kinase, fluorescein-labeled kinase tracer at Kd, 60 minutes at room temperature. On the procedure: (§1) MERTK, AXL, TYRO3 Kinase Homogeneous Time Resolved Fluorescence (HTRF) Assay
(§2) Assays were performed in black, flat-bottom, 1536-well plates. The reactions were incubated at room temperature for 60 minutes, following which the HTRF signals, ratio of fluorescence intensities at emission wavelengths for fluorescein acceptor (520 nm) and terbium donor (495 nm), the 520/495 ratio, were measured on the Envision Plate reader. Inhibition data were calculated from the 520/495 ratio generated by the no protein control reactions for 100% inhibition and vehicle-only reactions for 0% inhibition, and dose response curves generated to determine the concentration required for inhibiting 50% of the HTRF signal (IC50). Compounds were dissolved at 10 mM in dimethylsulfoxide (DMSO) and evaluated at eleven concentrations.
Background: Time-resolved FRET reads energy transfer from a long-lived donor to a nearby acceptor.

The target in test [2] is GST-MERTK 578-872 (Homo sapiens (Human), UniProt Q12866). Description: MERTK kinase homogeneous time resolved fluorescence (HTRF) binding assay. As to conditions: 1 nM kinase, fluorescein-labeled kinase tracer at Kd, 60 minutes at room temperature; read-out: Mer HTRF IC50. As to the method: as §1, §2
Sequence of GST-MERTK 578-872 (Q12866 578-872): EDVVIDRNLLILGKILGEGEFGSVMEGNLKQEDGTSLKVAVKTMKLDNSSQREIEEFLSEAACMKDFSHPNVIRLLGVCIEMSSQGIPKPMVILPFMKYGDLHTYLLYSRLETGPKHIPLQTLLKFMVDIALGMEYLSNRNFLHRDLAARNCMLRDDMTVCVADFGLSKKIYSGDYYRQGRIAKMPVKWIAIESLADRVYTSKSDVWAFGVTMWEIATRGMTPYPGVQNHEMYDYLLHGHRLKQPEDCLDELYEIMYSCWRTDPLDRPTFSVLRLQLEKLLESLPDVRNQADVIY

Sequence of HIS-AXL 473-End (P30530 473-894): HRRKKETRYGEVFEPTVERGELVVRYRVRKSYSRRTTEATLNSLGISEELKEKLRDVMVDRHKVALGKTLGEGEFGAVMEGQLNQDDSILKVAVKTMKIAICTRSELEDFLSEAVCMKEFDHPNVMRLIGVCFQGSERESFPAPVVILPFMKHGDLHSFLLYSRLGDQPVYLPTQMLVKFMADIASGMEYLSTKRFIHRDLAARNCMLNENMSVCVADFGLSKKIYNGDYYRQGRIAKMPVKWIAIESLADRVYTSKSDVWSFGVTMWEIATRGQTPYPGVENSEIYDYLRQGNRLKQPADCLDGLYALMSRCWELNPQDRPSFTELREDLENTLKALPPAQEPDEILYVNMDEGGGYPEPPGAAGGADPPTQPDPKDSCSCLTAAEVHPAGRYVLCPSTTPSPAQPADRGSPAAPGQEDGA

On to `Cc1cnc(Nc2cc(Oc3ccc(NC(=O)c4cn(C(C)C)c(=O)n(-c5ccc(F)cc5)c4=O)cc3F)ccn2)nc1` [Example 31], for which the IC50 in test [1] was found to be 7.5 nM; in test [2], 158 nM.
For the compound `CCc1cnc(Nc2cc(Oc3ccc(NC(=O)c4cn(C(C)C)c(=O)n(-c5ccc(F)cc5)c4=O)cc3F)ccn2)nc1` [Example 32], the half-maximal inhibitory concentration (IC50) was 0.9 nM in test [1] and 342 nM in test [2].
On the same counts, the results for `COC(=O)Cc1csc(Nc2cc(Oc3ccc(NC(=O)c4cn(C(C)C)c(=O)n(-c5ccc(F)cc5)c4=O)cc3F)ccn2)n1` [Example 33] are 19 nM and 67 nM.
In the case of `CC(C)n1cc(C(=O)Nc2ccc(Oc3ccnc(Nc4ccn(C(F)F)n4)c3)c(F)c2)c(=O)n(-c2ccc(F)cc2)c1=O` [Example 35, N-{4-[(2-{[1-(Difluoromethyl)-1H-pyrazol-3-yl]amino}pyridin-4-yl)oxy]-3-fluorophenyl}-3-(4-fluorophenyl)-2,4-dioxo-1-(propan-2-yl)-1,2,3,4-tetrahydropyrimidine-5-carboxamide], the figures for the IC50 in test [1] and in test [2] were 0.8 nM and 4.3 nM, respectively.
On the same counts, the results for `O=C(Nc1ccc(Oc2ccnc(Nc3ccc(Cl)cn3)c2)c(F)c1)c1cn(C2CC2)c(=O)n(-c2ccc(F)cc2)c1=O` [Example 36, N-[4-({2-[(5-chloropyridin-2-yl)amino]pyridin-4-yl}oxy)-3-fluorophenyl]-1-cyclopropyl-3-(4-fluorophenyl)-2,4-dioxo-1,2,3,4-tetrahydropyrimidine-5-carboxamide] are 11 nM and 38 nM.
Regarding `CC(C)n1cc(C(=O)Nc2ccc(Oc3ccnc(Nc4ccc(S(C)(=O)=O)cn4)c3)c(F)c2)c(=O)n(-c2ccc(F)cn2)c1=O` [Example 37, N-[3-Fluoro-4-({2-[(5-methanesulfonylpyridin-2-yl)amino]pyridin-4-yl}oxy)phenyl]-3-(5-fluoropyridin-2-yl)-2,4-dioxo-1-(propan-2-yl)-1,2,3,4-tetrahydropyrimidine-5-carboxamide], the figures for the IC50 in test [1] and in test [2] were 2.6 nM and 14 nM, respectively.
On the same counts, the results for `Cn1cc(C(=O)Nc2ccc(Oc3ccnc(Nc4ccc(S(C)(=O)=O)cn4)c3)c(F)c2)c(=O)n(-c2ccc(F)cc2)c1=O` [Example 38] are 3.5 nM and 16 nM.
As for `CN(C)S(=O)(=O)c1ccc(Nc2cc(Oc3ccc(NC(=O)c4cn(C5CC5)c(=O)n(-c5ccc(F)cc5)c4=O)cc3F)ccn2)nc1` [Example 40, 1-Cyclopropyl-N-{4-[(2-{[5-(dimethylsulfamoyl)pyridin-2-yl]amino}pyridin-4-yl)oxy]-3-fluorophenyl}-3-(4-fluorophenyl)-2,4-dioxo-1,2,3,4-tetrahydropyrimidine-5-carboxamide], the IC50 in test [1] was determined as 3.8 nM; in test [2], 11 nM.
On the same counts, the results for `CC(C)n1cc(C(=O)Nc2ccc(Oc3ccnc(Nc4ccc(S(=O)(=O)N(C)C)cn4)c3)c(F)c2)c(=O)n(-c2ccccc2)c1=O` [Example 42] are 7.4 nM and 21 nM.
For the compound `CN(C)S(=O)(=O)c1ccc(Nc2cc(Oc3ccc(NC(=O)c4cn(C5CC5)c(=O)n(-c5ccccc5)c4=O)cc3F)ccn2)nc1` [Example 43], the IC50 was 222 nM in test [1] and 21 nM in test [2].
On the same counts, the results for `CN(C)S(=O)(=O)c1ccc(Nc2cc(Oc3ccc(NC(=O)c4cn(C)c(=O)n(-c5ccc(F)cc5)c4=O)cc3F)ccn2)nc1` [Example 44] are 19 nM and 71 nM.
In the same order, the values of `COC[C@H](C)n1cc(C(=O)Nc2ccc(Oc3ccnc(Nc4ccc(S(=O)(=O)N(C)C)cn4)c3)c(F)c2)c(=O)n(-c2ccc(F)cc2)c1=O` [Example 45] are 21 nM and 40 nM.
For `CN(C)S(=O)(=O)c1ccc(Nc2cc(Oc3ccc(NC(=O)c4cn([C@@H]5CCOC5)c(=O)n(-c5ccc(F)cc5)c4=O)cc3F)ccn2)nc1` [Example 46], the figures for the half-maximal inhibitory concentration (IC50) in test [1] and in test [2] were 5.4 nM and 12 nM, respectively.
With `CN(C)S(=O)(=O)c1ccc(Nc2cc(Oc3ccc(NC(=O)c4cn([C@H]5CCOC5)c(=O)n(-c5ccc(F)cc5)c4=O)cc3F)ccn2)nc1` [Example 47], the half-inhibitory concentration (IC50) in test [1] turned out to be 6 nM; in test [2], 7.9 nM.
Consider `CC(C)n1cc(C(=O)Nc2ccc(Oc3ccnc(Nc4ccc(S(=O)(=O)N(C)C)cn4)c3)c(F)c2)c(=O)n(-c2ccc(F)cn2)c1=O` [Example 48], for which the IC50 in test [1] is 4.4 nM; in test [2], 15 nM.
In the case of `CC(C)n1cc(C(=O)Nc2ccc(Oc3ccnc(Nc4ccc(S(=O)(=O)N(C)C)cn4)c3)c(F)c2)c(=O)n(Cc2ccccc2)c1=O` [Example 49], the IC50 in test [1] amounted to 110 nM; in test [2] it was 3310 nM.
Regarding `CC(C)n1cc(C(=O)Nc2ccc(Oc3ccnc(Nc4ccc(S(=O)(=O)N(C)C)cn4)c3)c(F)c2)c(=O)n(C2CCCCC2)c1=O` [Example 53], the values for the half-inhibitory concentration (IC50) in test [1] and in test [2] were 256 nM and 487 nM, respectively.
Turning to `CC(C)n1cc(C(=O)Nc2ccc(Oc3ccnc(Nc4ccc(S(=O)(=O)N(C)C)cn4)c3)c(F)c2)c(=O)n(Cc2ccncc2)c1=O` [Example 58], the half-inhibitory concentration (IC50) in test [1] is 287 nM; in test [2], 201 nM.
`Cc1ccc(-n2c(=O)c(C(=O)Nc3ccc(Oc4ccnc(Nc5ccc(S(=O)(=O)N(C)C)cn5)c4)c(F)c3)cn(C(C)C)c2=O)cc1` [Example 62, N-{4-[(2-{[5-(Dimethylsulfamoyl)pyridin-2-yl]amino}pyridin-4-yl)oxy]-3-fluorophenyl}-3-(4-methylphenyl)-2,4-dioxo-1-(propan-2-yl)-1,2,3,4-tetrahydropyrimidine-5-carboxamide]: the results for the 50% inhibitory concentration (IC50) in test [1] and in test [2] were 4.6 nM and 23 nM, respectively.
Consider `CC(=O)c1ccc(-n2c(=O)c(C(=O)Nc3ccc(Oc4ccnc(Nc5ccc(S(=O)(=O)N(C)C)cn5)c4)c(F)c3)cn(C(C)C)c2=O)cc1` [Example 64], for which the IC50 in test [1] came out at 181 nM; in test [2], 814 nM.
For `CC(C)n1cc(C(=O)Nc2ccc(Oc3ccnc(Nc4ccc(S(=O)(=O)N(C)C)cn4)c3)c(F)c2)c(=O)n(-c2ccc(C(F)(F)F)cc2)c1=O` [Example 65], the IC50 is 100 nM in test [1] and 127 nM in test [2].
In the same order, the values of `CC(C)n1cc(C(=O)Nc2ccc(Oc3ccnc(Nc4ccc(S(=O)(=O)N(C)C)cn4)c3)c(F)c2)c(=O)n(-c2ccc(Cl)cc2)c1=O` [Example 66] are 31 nM and 29 nM.
In the same order, the values of `CC(C)n1cc(C(=O)Nc2ccc(Oc3ccnc(Nc4ccc(S(=O)(=O)N(C)C)cn4)c3)c(F)c2)c(=O)n(-c2cccc(F)c2)c1=O` [Example 68] are 7.1 nM and 20 nM.
Regarding `CC(C)n1cc(C(=O)Nc2ccc(Oc3ccnc(Nc4ccc(S(=O)(=O)N(C)C)cn4)c3)c(F)c2)c(=O)n(-c2ccc(F)c(F)c2)c1=O` [Example 69], the 50% inhibitory concentration (IC50) in test [1] came out at 18 nM; in test [2], 23 nM.
On the same counts, the results for `Cc1cccc(-n2c(=O)c(C(=O)Nc3ccc(Oc4ccnc(Nc5ccc(S(=O)(=O)N(C)C)cn5)c4)c(F)c3)cn(C(C)C)c2=O)c1` [Example 70] are 14 nM and 14 nM.
In the same order, the values of `COc1cccc(-n2c(=O)c(C(=O)Nc3ccc(Oc4ccnc(Nc5ccc(S(=O)(=O)N(C)C)cn5)c4)c(F)c3)cn(C(C)C)c2=O)c1` [Example 71] are 12 nM and 40 nM.
Take `CC(C)n1cc(C(=O)Nc2ccc(Oc3ccnc(Nc4ccc(S(=O)(=O)N(C)C)cn4)c3)c(F)c2)c(=O)n(-c2cccc(C(F)(F)F)c2)c1=O` [Example 72]: the concentration for half-maximal inhibition (IC50) in test [1] was found to be 90 nM; in test [2], 119 nM.
On the same counts, the results for `CC(=O)c1cccc(-n2c(=O)c(C(=O)Nc3ccc(Oc4ccnc(Nc5ccc(S(=O)(=O)N(C)C)cn5)c4)c(F)c3)cn(C(C)C)c2=O)c1` [Example 73] are 59 nM and 24 nM.
Regarding `CC(C)n1cc(C(=O)Nc2ccc(Oc3ccnc(Nc4ccc(S(=O)(=O)N(C)C)cn4)c3)cc2)c(=O)n(-c2ccc(F)cc2)c1=O` [Example 74, N-{4-[(2-{[5-(dimethylsulfamoyl)pyridin-2-yl]amino}pyridin-4-yl)oxy]phenyl}-3-(4-fluorophenyl)-2,4-dioxo-1-(propan-2-yl)-1,2,3,4-tetrahydropyrimidine-5-carboxamide], the concentration for half-maximal inhibition (IC50) worked out at 2.9 nM in test [1] and 1440 nM in test [2].
In the same order, the values of `CC(C)n1cc(C(=O)Nc2ccc(Oc3ccnc(Nc4ccc(S(=O)(=O)N(C)C)cn4)c3)cc2)c(=O)n(-c2ccccc2)c1=O` [Example 75, N-{4-[(2-{[5-(dimethylsulfamoyl)pyridin-2-yl]amino}pyridin-4-yl)oxy]phenyl}-2,4-dioxo-3-phenyl-1-(propan-2-yl)-1,2,3,4-tetrahydropyrimidine-5-carboxamide] are 3.5 nM and 42 nM.
On the same counts, the results for `CC(C)n1cc(C(=O)Nc2ccc(Oc3ccnc(Nc4ccc(S(=O)(=O)N5CCCCC5)cn4)c3)c(F)c2)c(=O)n(-c2ccc(F)cc2)c1=O` [Example 76, N-{3-Fluoro-4-[(2-{[5-(piperidine-1-sulfonyl)pyridin-2-yl]amino}pyridin-4-yl)oxy]phenyl}-3-(4-fluorophenyl)-2,4-dioxo-1-(propan-2-yl)-1,2,3,4-tetrahydropyrimidine-5-carboxamide] are 18 nM and 38 nM.
For `CNS(=O)(=O)c1ccc(Nc2cc(Oc3ccc(NC(=O)c4cn(C(C)C)c(=O)n(-c5ccc(F)cc5)c4=O)cc3F)ccn2)nc1` [Example 77], the results for the IC50 in test [1] and in test [2] were 5 nM and 8.3 nM, respectively.
In the same order, the values of `CC(C)NS(=O)(=O)c1ccc(Nc2cc(Oc3ccc(NC(=O)c4cn(C(C)C)c(=O)n(-c5ccc(F)cc5)c4=O)cc3F)ccn2)nc1` [Example 78] are 986 nM and 9.8 nM.

One may read the IC50 as the midpoint of a concentration-inhibition curve.

Source of the values: patent publication US20230339891A1, “URACIL DERIVATIVES AS MER-AXL INHIBITORS” (BRISTOL-MYERS SQUIBB COMPANY, priority 2018, published 2023).
